Like-named read-outs stand apart in the source and are kept apart here.
Columns and labels:
hyaluronidase = molecular target: T1, hyaluronidase (Bos taurus, UniProt Q2YDK3); assay: Anti-hyaluronidase activity (modified Morgan-Elson method); type: biochemical; settings: hyaluronidase 340NF unit/ml, activating agent Compound 48/80 or CaCl2
T1 sequence (Q2YDK3 36-553): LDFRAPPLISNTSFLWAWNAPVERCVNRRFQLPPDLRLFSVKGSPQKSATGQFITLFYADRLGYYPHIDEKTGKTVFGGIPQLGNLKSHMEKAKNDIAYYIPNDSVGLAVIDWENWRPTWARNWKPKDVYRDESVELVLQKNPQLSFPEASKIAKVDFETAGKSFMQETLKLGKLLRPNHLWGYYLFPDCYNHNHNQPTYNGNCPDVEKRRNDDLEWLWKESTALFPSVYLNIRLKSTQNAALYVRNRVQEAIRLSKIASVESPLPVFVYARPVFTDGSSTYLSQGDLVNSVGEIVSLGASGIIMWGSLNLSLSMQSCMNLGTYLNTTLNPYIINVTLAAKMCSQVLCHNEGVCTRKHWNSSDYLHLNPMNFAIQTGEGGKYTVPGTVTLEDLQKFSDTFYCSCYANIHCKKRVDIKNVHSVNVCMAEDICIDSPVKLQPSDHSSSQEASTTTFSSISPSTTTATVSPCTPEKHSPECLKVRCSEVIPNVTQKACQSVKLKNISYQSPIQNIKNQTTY
Description: A buffer soluticn of hyaluronidase (0.1 ml) was taken in a test tube and 0.2 ml each of the buffer solution of various compounds in various concentrations was added, and the mixture was preincubated at 37° C. for 20 minutes. Then, an activating agent (Compound 48/80 or CaCl2) (0.2 ml) was added to make the total amount 0.5 ml, which was incubated at 37° C. for 20 minutes. Then, potassium hyaluronate buffer solution (0.5 ml) was added, and the mixture was incubated at 37° C. for 40 minutes. After cooling, the mixture was treated with aqueous solution of 0.4N NaOH (0.2 ml) and neutralized to stop the reaction. The resulting product was subjecred to measurement of OD585 by the modified Morgan-Elson Method. […] (The final ccncentration of hyaluronidase was 340NF unit/ml.) [formula]

[1] = tested on: passive cutaneous anaphylaxis (PCA); assay: Anti-passive cutaneous anaphylaxis (PCA) activity in rats (Test Example 2); type: in vivo, Wistar strain rats; settings: Rattus norvegicus, N 10; for inhibition in vivo at 50 mg/kg: 50 mg/kg PO; for inhibition in vivo at 100 mg/kg: 100 mg/kg PO; for inhibition in vivo at 10 mg/kg: 10 mg/kg PO
Description: (§1) Wistar strain rats were sensitized with ovalbumin using aluminium hydroxide gel and Bordetella Pertussis vaccine as adjuvants. Dilutions of antiserum (16-fold and 32-fold) obtained by collecting blood samples 14 days later were administered subcutaneously in the dorsal skin of the rats of the same strain at the rate of 0.1 ml per spot, and the rats were grown for 48 hours. One hour after peroral administration of the sample solution, a mixture of antigen ovalbumin and Evans-blue dye was administered to the tail venous of the animal according to the ordinary procedure. Thirty minutes later, the animals were sacrificed by exsanguination, and the areas of blue spots (long diameter×short diameter) eliciting on the portion of the antiserum injection at the dorsal skin were measured to obtain the rate of inhibition based on the average value shown by the control animals.

[2] = tested on: experimental ulcer model (Shay); assay: Anti-ulcer activity in experimental ulcer model (Shay); type: in vivo, Wistar strain male rats
Description: Using 5 eight-week old Wistar strain male rats of 1 group, the rats were previously fasted for […]. The compound of an amount proportionate to the body weight based on the body weight after fasting was administered intraduodenally or intraperitoneally.
Each test compound was evenly suspended or dissolved in an aqueous solution of 0.5% CMC ccntaining 0.1% Tween 80, and administered at the rate of 0.5 ml per 100 g of body weight of the animal. To the controls, only the solvent was administered.
Test was carried out in accordance with Shay's method. After 48 hours' fasting, 5 animals per group were subjected to laparotomy under ether anesthesia, the tract between pylorus of stomach and duodenum was ligated, and the solution of the compound was administered intraduodenally (id) or intraperitoneally (ip), followed by suturing the laparotomy part. Eight hours after administration of the compound liquid, each animal was sacrificed by ether anesthesia and stomach was removed. Then, evaluation on the ulcer condition on the inner surface of stomach, and determination of the amount of gastric juice, of acidity by alkali titration, and of pepsin titer based on substrate of hemoglovin were made on the stored gastric juice. With regard to the acidity, gastric juice amount, and pepsin titer, the results were shown in inhibition rate (%) based on the average value of the control groups.

[3] = Acute toxicity LD50 in mice (Test Example 8); settings: mouse, in vivo, one week, Probit method
Description: ddy-Strain mice (male) and Wistar strain rats were used to obtain LD50 values.
According to the ordinary procedure, suspension or solution of test sample was administered to the animals. From the number of the died animals until one week after the administration, LD50 values were obtained by Probit method.

[4] = tested on: passive cutaneous anaphylaxis (PCA); assay: Anti-passive cutaneous anaphylaxis activity (PCA) in rats (Test Example 9); type: in vivo; settings: Rattus norvegicus, po, 10 animals
Description: as §1
This test was conducted in a manner similar to that in Test Example 2, except that the dilutions of antiserum were 12- and 24-folds.

[5] = Acute toxicity LD50 in ICR mice (Test Example 11); settings: mouse, in vivo; intravenous; one week; Provit method; read-out: LD50 Value (mg/kg of body weight) Intravenous administration
Description: As test animals, ICR-strain mice (male) were used. According to the conventional procedure, suspension or solution of test sample was administered to the animals. From the number of the died animals until one week after the administration, LD50 values were obtained by Provit method.

[6] = read-out: Average Inhibition Rate (%) Antiserum Dilution: × 16
[7] = read-out: Average Inhibition Rate (%) Antiserum Dilution: × 32
[8] = iv, read-out: LD50 value (mg/kg body weight) Mouse i.v.
[9] = po, read-out: LD50 value (mg/kg body weight) Mouse p.o.
[10] = read-out: Inhibition, Anti-serum Dilution: × 12
[11] = read-out: Inhibition, Anti-serum Dilution: × 24

Compound | inhibition in vivo at 100 mg/kg [1, 6] | inhibition in vivo at 100 mg/kg [1, 7] | IC50 (hyaluronidase; read-out: IC50) | inhibition in vivo at 50 mg/kg [4, 10] | inhibition in vivo at 50 mg/kg [4, 11] | inhibition in vivo at 10 mg/kg [4, 10] | inhibition in vivo at 10 mg/kg [4, 11] | also measured
COc1ccc(C=C(C(=O)Nc2cc([N+](=O)[O-])ccc2C(=O)O)C(=O)Nc2cc([N+](=O)[O-])ccc2C(=O)O)cc1OC [Compound 22] | 34.6% | 40% | – | – | – | – | – | IC50 (hyaluronidase; IC50 (mM)): 0.008 mM; inhibition in vivo at 50 mg/kg [1, 6]: 19.7%; inhibition in vivo at 50 mg/kg [1, 7]: 22.6%; Inhibition % Gastric Acidity ([2]; id 100 mg/kg): 9.1%; Inhibition % secretion amount of gastric juice ([2]; id 100 mg/kg): 11.1%; Inhibition % total pepsin titer ([2]; id 100 mg/kg): 7.2%; Inhibition % Gastric Acidity ([2]; id 200 mg/kg): 13.2%; Inhibition % secretion amount of gastric juice ([2]; id 200 mg/kg): 11.6%; Inhibition % total pepsin titer ([2]; id 200 mg/kg): 10.1%; Inhibition % Gastric Acidity ([2]; id 300 mg/kg): 15.7%; Inhibition % secretion amount of gastric juice ([2]; id 300 mg/kg): 24.9%; Inhibition % total pepsin titer ([2]; id 300 mg/kg): 8.3%; Inhibition % Gastric Acidity ([2]; ip 50 mg/kg): 38.2%; Inhibition % secretion amount of gastric juice ([2]; ip 50 mg/kg): 29.0%; Inhibition % total pepsin titer ([2]; ip 50 mg/kg): 37.2%
COc1cc(C=C(C(=O)Nc2ccccc2C(=O)O)C(=O)Nc2ccccc2C(=O)O)ccc1O [Compound 24] | – | – | 0.02 mM | – | – | – | – | LD50 at 168 h [3, 8]: 275 mg/kg; LD50 at 168 h [3, 9]: > 10000 mg/kg
Cc1ccc(C=C(C(=O)Nc2ccccc2C(=O)O)C(=O)Nc2ccccc2C(=O)O)cc1 [Compound 26, 2,2'-[[1,3-dioxo-2-(4-methyl)phenylmethylene-1,3-propanediyl]diimino]bisbenzoic acid] | 16.4% | 19.1% | 0.02 mM | – | – | – | – | inhibition in vivo at 50 mg/kg [1, 6]: 8.3%; inhibition in vivo at 50 mg/kg [1, 7]: 10%
CC(=O)Nc1ccc(C=C(C(=O)Nc2ccccc2C(=O)O)C(=O)Nc2ccccc2C(=O)O)cc1 [Compound 29] | 3.4% | 3.9% | 0.02 mM | – | – | – | – | Inhibition % Gastric Acidity ([2]; id 100 mg/kg): 0%; Inhibition % secretion amount of gastric juice ([2]; id 100 mg/kg): 0%; Inhibition % total pepsin titer ([2]; id 100 mg/kg): 0%; Inhibition % Gastric Acidity ([2]; id 200 mg/kg): 0.7%; Inhibition % secretion amount of gastric juice ([2]; id 200 mg/kg): 0.5%; Inhibition % total pepsin titer ([2]; id 200 mg/kg): 0%
O=C(Nc1ccccc1C(=O)O)C(=Cc1ccc(Cl)cc1)C(=O)Nc1ccccc1C(=O)O [Compound 30] | 36.5% | 42.5% | 0.01 mM | – | – | – | – | inhibition in vivo at 10 mg/kg [1, 6]: 18.8%; inhibition in vivo at 10 mg/kg [1, 7]: 23.2%; inhibition in vivo at 50 mg/kg [1, 6]: 23.4%; inhibition in vivo at 50 mg/kg [1, 7]: 33.3%; LD50 at 168 h [3, 8]: 258 mg/kg; LD50 at 168 h [3, 9]: 8380 mg/kg
CC(C)OC(=O)c1ccccc1NC(=O)C(=Cc1ccccc1)C(=O)Nc1ccccc1C(=O)OC(C)C [Compound 53, diisopropyl 2,2'-[(1,3-dioxo-2-phenylmethylene-1,3-propanediyl)diimino]bisbenzoate] | – | – | – | 26.1% | 23.9% | – | – | –
CC(C)(C)OC(=O)c1ccccc1NC(=O)C(=Cc1ccccc1)C(=O)Nc1ccccc1C(=O)OC(C)(C)C [Compound 54, di-tertiary butyl 2,2'-[(1,3-dioxo-2-phenylmethylene-1,3-propanediyl)diimino]bisbenzoate] | – | – | – | 38.8% | 42.6% | 33% | 34.3% | LD50 at 168 h [5]: 312 mg/kg
O=C(Nc1ccccc1C(=O)OC1OC(=O)c2ccccc21)C(=Cc1ccccc1)C(=O)Nc1ccccc1C(=O)OC1OC(=O)c2ccccc21 (stereo not drawn) [Compound 56] | – | – | – | 49.7% | 58.4% | 44.7% | 43.6% | –
CC(C)(C)C(=O)OCOC(=O)c1ccccc1NC(=O)C(=Cc1ccccc1)C(=O)Nc1ccccc1C(=O)OCOC(=O)C(C)(C)C [Compound 57, di(pivaloyloxymethyl)-2,2'-[(1,3-dioxo-2-phenylmethylene-1,3-propanediyl)diimino]bisbenzoate] | – | – | – | 45% | 50.1% | 37% | 30.9% | –
CCOC(=O)OC(C)OC(=O)c1ccccc1NC(=O)C(=Cc1ccccc1)C(=O)Nc1ccccc1C(=O)OC(C)OC(=O)OCC (stereo not drawn) [Compound 58, di[1-(ethoxycarbonyloxy)ethyl]-2,2'-[(1,3-dioxo-2-phenylmethylene-1,3-propanediyl)diimino]bisbenzoate] | – | – | – | 50.8% | 57.6% | 40.2% | 43.1% | –
Cc1oc(=O)oc1COC(=O)c1ccccc1NC(=O)C(=Cc1ccccc1)C(=O)Nc1ccccc1C(=O)OCc1oc(=O)oc1C [Compound 59, di[(5-methyl-2-oxo-1,3-dioxole-4-yl)methyl]-2,2'-[(1,3-dioxo-2-phenylmethylene-1,3-propanediyl)diimino]bisbenzoate] | – | – | – | 65.7% | 62% | 22% | 25.1% | –
